Consider 3 substances from US8178506B2, “Oligomeric compounds and compositions for use in modulation of small non-coding RNAs” (Regulus Therapeutics Inc., priority 2003, dated 2012).

One data set concerns mir-23b miRNA. Nature of the data set: pGL3-mir-23b sensor luciferase assay in HeLa cells. The format is cell-based, human. The note with it: pGL3-mir-23b sensor-expressing HeLa cells.
The next data set deals with ob/ob mice. Nature of the data set: ob/ob mice: plasma parameters, food consumption, marker gene mRNA. The format is in vivo, mouse. The note with it: ob/ob mice, 25 mg/kg s.c. two times per week, 6 weeks. The method in brief:
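Male C57Bl/6J ob/ob mice received oligomeric compound or control at 25 mg/kg s.c. twice weekly, for 4 weeks on a 10-15% fat diet or for 6 weeks on high-fat diet. Plasma glucose and insulin were measured at 0, 2 and 4 weeks; i.p. glucose/insulin tolerance tests were run; serum lipids, liver triglycerides and histology were assessed, with liver, BAT and WAT mRNA quantified by real-time PCR.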

The subject of a further data set is mir-143 binding sites. The experiment in a line: pGL3-mir-143 sensor luciferase assay in HeLa cells. The format is cell-based, human. Particulars: Table 41, pGL3-mir-143 sensor, 24 hours.

In the oligonucleotide strings, read from the 5' end, every base follows the letter of its sugar. An asterisk marks phosphorothioate; unmarked linkages are phosphodiester. Other units and linkages are bracketed, terminal groups are in braces. A string of capitals states the bases alone. e = 2'-O-(2-methoxyethyl) (MOE); [5mC] = 5-methylcytosine

As for “327924 (antisense eG*e[5mC]*eA*eA*eG*e[5mC]*e[5mC]*e[5mC]*eA*eG*eA*e[5mC]*e[5mC]*eG*e[5mC]*eA*eA*eA*eA*eA*eG) [compound 327924]”, the Fold change luciferase in the data set with mir-23b miRNA (1.3 nM) is recorded as 1.15; in the data set with mir-23b miRNA (5 nM), 0.68; in the data set on mir-23b miRNA (20 nM) it was 0.92.

Turning to “CTAGTGGTCCTAAACATTTCAC (chemistry not given here) [ISIS 327878, uniform 2′-MOE PS; targets mir-203]”, in the data set on ob/ob mice, the “plasma glucose levels (fed)” value is listed as “reduced beginning at approximately four weeks after the start of treatment”.

Turning to “ds-mir-143: double-stranded RNA of ISIS 342199 hybridized to its perfect complement ISIS 342200 (sense UGAGAUGAAGCACUGUAGCUCA; antisense UGAGCUACAGUGCUUCAUCUCA; RNA, backbone not given here)”, the figures for the luciferase expression in the data set on mir-143 binding sites (11 nM), in the data set on mir-143 binding sites (33 nM) and in the data set with mir-143 binding sites (100 nM) were 15.0 percent untreated control, 15.0 percent untreated control and 11.1 percent untreated control, respectively.
